Measured values taken from patent US9206156B2, “Substituted indole derivatives” (GRÜNENTHAL GMBH, priority 2008, dated 2015).

Key:
human μ-opiate receptor = biological target: T1, human μ-opiate receptor (Homo sapiens, UniProt P35372); assay: μ-opiate receptor binding assay with [3H] naloxone (WGA-SPA beads); conditions: 1 μmol/l test substance, 1 nmol/l [3H] naloxone, CHO-K1 cell membranes expressing human μ-opiate receptor
T1 construct: purchased NEN, Zaventem, Belgium RB-HOM; host or cells: CHO-K1 cells (membrane preparation)
Procedure: The receptor affinity to the human μ-opiate receptor was determined in a homogeneous batch in microtitre plates. To this end, dilution series of the substituted indole derivative to be tested were incubated for 90 minutes at room temperature with a receptor membrane preparation (15-40 μg protein per 250 μl incubation batch) of CHO-K1 cells, which express the human μ-opiate receptor (RB—HOM receptor membrane preparation from NEN, Zaventem, Belgium), in the presence of 1 nmol/l of the radioactive ligand [^3H] naloxone (NET719, NEN, Zaventem, Belgium) and 1 mg of WGA-SPA beads (wheat germ agglutinin SPA beads from Amersham/Pharmacia, Freiburg, Germany) in a total volume of 250 μl. 50 mmol/l tris-HCl supplemented with 0.05 wt. % sodium azide and 0.06 wt. % bovine serum albumin were used as the incubation buffer. In order to determine the non-specific binding, 25 μmol/l of naloxone were also added. At the end of the ninety-minute incubation period the microtitre plates were centrifuged for 20 minutes at 1000 g and the radioactivity was measured in a β counter (Microbeta-Trilux, PerkinElmer Wallac, Freiburg, Germany). The percentage displacement of the radioactive ligand from its binding to the human μ-opiate receptor was determined at a test substance concentration of 1 μmol/l and stated as the percentage inhibition (% inhibition) of the specific binding. In some cases the percentage displacement due to differing concentrations of the compounds having the general formula I to be tested was used to calculate the IC50 inhibition concentrations which bring about a 50-percent displacement of the radioactive ligand. Ki values for the test substances were obtained by extrapolation using the Cheng-Prusoff equation.

ORL1 receptor = biological target: T2, ORL1 receptor (Homo sapiens, UniProt P41146); assay: ORL1 receptor binding assay with 3H-nociceptin/orphanin FQ (WGA-SPA beads); conditions: c=1 μM test substance; 0.5 nM 3H-nociceptin/orphanin FQ; membranes of recombinant CHO-ORL1 cells
T2 construct: expressed in transfected cells; host or cells: CHO (recombinant CHO-ORL1 cells), membranes
Procedure: Measurement of ORL1 Binding
The cyclohexane derivatives having the general formula I were investigated in a receptor binding assay with ^3H-nociceptin/orphanin FQ with membranes of recombinant CHO—ORL1 cells. This test system was conducted in accordance with the method described by Ardati et al. (Mol. Pharmacol., 51, 1997, p. 816-824). The concentration of ^3H-nociceptin/orphanin FQ in these tests was 0.5 nM. The binding assays were carried out with 20 μg amounts of membrane protein per 200 μl batch in 50 mM Hepes, pH 7.4, 10 mM MgCl2 and 1 mM EDTA. The binding to the ORL1 receptor was determined using 1 mg amounts of WGA-SPA beads (Amersham-Pharmacia, Freiburg, Germany), by incubation of the batch for one hour at room temperature and subsequent measurement in a Trilux scintillation counter (Wallac, Finland). The affinity is given in Table 1 as the nanomolar Ki value or in % inhibition at c=1 μM.

T2 sequence (P41146 whole entry): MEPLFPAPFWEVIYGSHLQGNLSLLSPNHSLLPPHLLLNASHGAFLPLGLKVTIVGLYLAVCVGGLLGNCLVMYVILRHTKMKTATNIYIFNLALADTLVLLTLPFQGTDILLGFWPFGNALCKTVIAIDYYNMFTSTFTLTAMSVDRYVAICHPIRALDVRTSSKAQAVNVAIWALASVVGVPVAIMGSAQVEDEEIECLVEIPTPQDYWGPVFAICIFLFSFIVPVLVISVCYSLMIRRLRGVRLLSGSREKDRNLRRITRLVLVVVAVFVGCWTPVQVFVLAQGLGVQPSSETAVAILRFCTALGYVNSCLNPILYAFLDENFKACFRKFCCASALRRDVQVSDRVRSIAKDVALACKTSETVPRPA
T1 sequence (P35372 whole entry): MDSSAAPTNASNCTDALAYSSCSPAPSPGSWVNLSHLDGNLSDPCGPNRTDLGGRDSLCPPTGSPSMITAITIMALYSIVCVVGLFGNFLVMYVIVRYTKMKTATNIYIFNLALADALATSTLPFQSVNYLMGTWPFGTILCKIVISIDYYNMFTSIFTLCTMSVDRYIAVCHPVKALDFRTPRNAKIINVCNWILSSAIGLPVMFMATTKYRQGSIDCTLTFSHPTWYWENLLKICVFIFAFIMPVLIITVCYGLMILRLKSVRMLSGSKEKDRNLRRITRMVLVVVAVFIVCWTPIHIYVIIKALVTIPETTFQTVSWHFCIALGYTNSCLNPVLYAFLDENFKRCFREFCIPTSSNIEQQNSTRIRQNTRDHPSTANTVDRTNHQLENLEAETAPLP

SMILES	inhibition at 1 µM (human μ-opiate receptor) [%]	inhibition at 1 µM (ORL1 receptor) [%]	% Inhibition (μ) at 1 μM (human μ-opiate receptor; 1 µM) [%]	% Inhibition (ORL1) at 1 μM (ORL1 receptor) [%]	% Inhibition (μ) at 1 μM (human μ-opiate receptor) [%]
COc1ccc2c(CN3CCCC(C(=O)N4CCC(c5ccccc5)(N(C)C)CC4)C3)c(C)n(C)c2c1 (centres unmarked) [Example 176, (4-(dimethylamino)-4-phenylpiperidin-1-yl)(1-((6-methoxy-1,2-dimethyl-1H-indol-3-yl)methyl)piperidin-3-yl)methanone]	61	53			
CN(CCN1CCC(c2ccccc2)(N(C)C)CC1)C(=O)CCc1c[nH]c2ccccc12 [Example 4, N-(2-(4-(Dimethylamino)-4-phenylpiperidin-1-yl)ethyl)-3-(1H-indol-3-yl)-N-methylpropanamide]	93	86			
Cc1[nH]c2ccccc2c1CNCCC(=O)N1CCC(c2ccccc2)(N(C)C)CC1 [Example 167, 1-(4-(dimethylamino)-4-phenylpiperidin-1-yl)-3-((2-methyl-1H-indol-3-yl)methylamino)propan-1-one]	86	65			
CC(C)C(CC(=O)NCCN1CCC(c2cccs2)(N(C)C)CC1)c1c[nH]c2ccccc12 (centres unmarked) [Example 6, N-(2-(4-(Dimethylamino)-4-(thiophen-2-yl)piperidin-1-yl)ethyl)-3-(1H-indol-3-yl)-4-methylpentanamide]			102	98	
CN(CCN1CCC(c2ccccc2)(N(C)C)CC1)Cc1c[nH]c2ccccc12 [Example 186, 1-(2-(((1H-indol-3-yl)methyl)(methy)amino)ethyl)-N,N-dimethyl-4-phenylpiperidin-4-amine]			102	88	
CN(C)C1(c2cccs2)CCN(C(=O)CC(NCc2ccc3cc[nH]c3c2)c2ccccc2)CC1 (centres unmarked) [Example 169, 3-((1H-indol-6-yl)methylamino)-1-(4-(dimethylamino)-4-(thiophen-2-yl)piperidin-1-yl)-3-phenylpropan-1-one]	91	54			
CN(Cc1ccc2cc[nH]c2c1)C(C(=O)N1CCC(c2cccs2)(N(C)C)CC1)c1ccccc1 (centres unmarked) [Example 150, 2-(((1H-indol-6-yl)methyl)(methyl)amino)-1-(4-(dimethylamino)-4-(thiophen-2-yl)pipendin-1-yl)-2-phenylethanone]				76	54
CC(CC(=O)N(C)CCN1CCC(c2ccccc2)(N(C)C)CC1)c1c[nH]c2ccccc12 (centres unmarked) [Example 20, N-(2-(4-(Dimethylamino)-4-phenylpiperidin-1-yl)ethyl)-3-(1H-indol-3-yl)-N methylbutanamide]	88	68			
CCCCC1(N(C)C)CCN(CCN(C)C(=O)Cc2c[nH]c3cc(F)ccc23)CC1 [Example 44, N-(2-(4-Butyl-4-(dimethylamino)piperidin-1-yl)ethyl)-2-(6-fluoro-1H-indol-3-yl)-N-methylacetamide]				50	92
CC(C)C(CC(=O)N(C)CCN1CCC(c2ccccc2)(N(C)C)CC1)c1c[nH]c2ccccc12 (centres unmarked) [Example 24, N-(2-(4-(Dimethylamino)-4-phenylpiperidin-1-yl)ethyl)-3-(1H-indol-3-yl)-N,4-dimethylpentanamide]	97	84			
CN(C)C1(c2cccs2)CCN(C(=O)CC(NC(=O)c2ccc3ccn(C)c3c2)c2ccccc2)CC1 (centres unmarked) [Example 101, N-(3-(4-(dimethylamino)-4-(thiophen-2-yl)piperidin-1-yl)-3-oxo-1-phenylpropyl)-1-methyl-1H-indole-6-carboxamide]	96	68			
CN(CCN1CCC(c2ccccc2)(N(C)C)CC1)Cc1c[nH]c2ccc(Cl)cc12 [Example 182, 1-(2-(((5-chloro-1H-indol-3-yl)methyl)(methy)amino)ethyl)-N,N-dimethyl-4-phenylpiperidin-4-amine]			101	95	
CCCCC1(N(C)C)CCN(CCN(C)Cc2ccc3cc[nH]c3c2)CC1 [Example 144, 1-(2-(((1H-indol-6-yl)methyl)(methy)amino)ethyl)-4-butyl-N,N-dimethylpiperidin-4-amine]				39	90
CC(C)C(CC(=O)N1CC(C(=O)N2CCC(c3ccccc3)(N(C)C)CC2)c2ccccc21)c1c[nH]c2ccccc12 (centres unmarked) [Example 89, 1-(3-(4-(dimethylamino)-4-phenylpiperidine-1-carbonyl)indolin-1-yl)-3-(1H-indol-3-yl)-4-methylpentan-1-one]	94	91			
CN(C)C1(c2ccccc2)CCN(C(=O)CCNCc2ccc3cc[nH]c3c2)CC1 [Example 145, 3-((1H-indol-6-yl)methylamino)-1-(4-(dimethylamino)-4-phenylpiperidin-1-yl)propan-1-one]	80	45			
CN(C)C1(c2cccs2)CCN(CCNC(=O)CCc2c[nH]c3ccccc23)CC1 [Example 5, N-(2-(4-(Dimethylamino)-4-(thiophen-2-yl)piperidin-1-yl)ethyl)-3-(1H-indol-3-yl)propanamide]	98	89			
CC(C)c1ccc2c(CN(C)CCN3CCC(c4ccccc4)(N(C)C)CC3)c[nH]c2c1 [Example 180, 1-(2-(((6-isopropyl-1H-indol-3-yl)methyl)(methyl)amino)ethyl)-N,N-dimethyl-4-phenylpiperidin-4-amine]	95	96			
CN(C)C1(c2cccs2)CCN(C(=O)CC(NC(=O)c2ccc3cc[nH]c3c2)c2ccccc2)CC1 (centres unmarked) [Example 96, N-(3-(4-(dimethylamino)-4-(thiophen-2-yl)piperidin-1-yl)-3-oxo-1-phenylpropyl)-1H-indole-6-carboxamide]	96	79			
CN(C)C1(c2ccccc2)CCN(C(=O)C2CCCN(C(=O)c3cccc4c3ccn4C)C2)CC1 (centres unmarked) [Example 130, (4-(dimethylamino)-4-phenylpiperidin-1-yl)(1-(1-methyl-1H-indole-4-carbonyl)piperidin-3-yl) methanone]	51	36			
CN(C)C1(c2ccccc2)CCN(C(=O)CCNCc2c[nH]c3ccccc23)CC1 [Example 139, 3-((1H-indol-3-yl)methylamino)-1-(4-(dimethylamino)-4-phenylpiperidin-1-yl)propan-1-one]	90	74			
CN(C(=O)Cc1c[nH]c2ccc(Br)cc12)C(C(=O)N1CCC(c2cccs2)(N(C)C)CC1)c1ccccc1 (centres unmarked) [Example 100, 2-(5-bromo-1H-indol-3-yl)-N-(2-(4-(dimethylamino)-4-(thiophen-2-yl)piperidin-1-yl)-2-oxo-1-phenylethyl)-N-methylacetamide]	95	69			
Cc1c(CN(C)CCN2CCC(c3ccccc3)(N(C)C)CC2)c2ccccc2n1C [Example 189, 1-(2-(((1,2-dimethyl-1H-indol-3-yl)methyl)(methyl)amino)ethyl)-N,N-dimethyl-4-phenylpiperidin-4-amine]	100	83			
CC(C)C(CC(=O)NCC(=O)N1CCC(c2cccs2)(N(C)C)CC1)c1c[nH]c2ccccc12 (centres unmarked) [Example 88, N-(2-(4-(dimethylamino)-4-(thiophen-2-yl)piperidin-1-yl)-2-oxoethyl)-3-(1H-indol-3-yl)-4-methylpentanamide]	94	92			
CN(C(=O)CCc1cn(C)c2ccccc12)C(C(=O)N1CCC(c2cccs2)(N(C)C)CC1)c1ccccc1 (centres unmarked) [Example 126, N-(2-(4-(dimethylamino)-4-(thiophen-2-yl)piperidin-1-yl)-2-oxo-1-phenylethyl)-N-methyl-3-(1-methyl-1H-indol-3-yl)propanamide]	90	40			
Cc1[nH]c2ccccc2c1CN1CCCC(C(=O)N2CCC(c3ccccc3)(N(C)C)CC2)C1 (centres unmarked) [Example 156, (4-(dimethylamino)-4-phenylpiperidin-1-yl)(1-((2-methyl-1H-indol-3-yl)methyl)piperidin-3-yl) methanone]	57	39			
